Source: patent US20150209379A1, “TREATMENT OF PROSTATE CANCER AND HEMATOLOGIC NEOPLASMS” (THOMAS JEFFERSON UNIVERSITY, priority 2012, published 2015)

Assays:
Stat5b = biological target: T1, Stat5b (Homo sapiens, UniProt P51692); experiment: Stat5b transcriptional activity, beta-casein promoter luciferase reporter gene assay in PC-3 cells; assay type: cell-based; details: varying concentration
T1 construct: expressed in transfected cells; host or cells: PC-3 human prostate cancer cells
T1 sequence (P51692 1-787): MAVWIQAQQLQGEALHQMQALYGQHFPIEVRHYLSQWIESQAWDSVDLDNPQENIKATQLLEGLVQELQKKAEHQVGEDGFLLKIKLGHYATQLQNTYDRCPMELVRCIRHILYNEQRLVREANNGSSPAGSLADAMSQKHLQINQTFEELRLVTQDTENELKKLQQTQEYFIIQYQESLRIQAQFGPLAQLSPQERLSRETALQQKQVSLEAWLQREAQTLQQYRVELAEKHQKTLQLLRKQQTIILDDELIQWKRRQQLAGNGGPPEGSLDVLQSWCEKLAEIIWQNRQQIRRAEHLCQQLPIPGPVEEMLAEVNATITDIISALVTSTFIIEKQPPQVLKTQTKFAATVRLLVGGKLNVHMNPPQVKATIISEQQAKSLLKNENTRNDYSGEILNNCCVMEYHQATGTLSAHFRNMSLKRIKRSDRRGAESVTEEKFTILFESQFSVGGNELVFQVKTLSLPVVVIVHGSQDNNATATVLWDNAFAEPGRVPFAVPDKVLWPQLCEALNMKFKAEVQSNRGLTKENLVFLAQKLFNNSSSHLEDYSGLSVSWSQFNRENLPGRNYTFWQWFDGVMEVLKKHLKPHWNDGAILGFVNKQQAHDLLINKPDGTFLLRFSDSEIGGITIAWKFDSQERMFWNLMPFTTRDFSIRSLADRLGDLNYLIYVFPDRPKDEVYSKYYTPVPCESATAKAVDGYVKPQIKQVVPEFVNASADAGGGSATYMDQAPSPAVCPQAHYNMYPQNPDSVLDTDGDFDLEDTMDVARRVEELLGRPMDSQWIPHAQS
Method: Cells of the human prostate cell line PC-3 were plated into 96-well plate at the density of 2×10^5 per well. After 24 hours of plating, cells were transiently co-transfected using FuGENE6 (Roche) with 0.25 μg of each of pStat5a or pStat5b, pPrlR (prolactin receptor) plasmids, 0.5 μg of pBeta-casein-luc and 0.025 μg of pRL-TK (Renilla luciferase) plasmids as an internal control. After another 24 hours of transfection, the cells were starved in serum-free medium for 8 hours, pretreated with N^6-benzyladenosine (“N6BA”), or the control compound C5, for 1 hour, and then stimulated with 10 nM human prolactin (hPrl) in the serum-free medium for additional 16 hours. The lysates were assayed for firefly and Renilla luciferase activities using the Dual-Luciferase reporter assay system (Promega). Three independent experiments were carried out in triplicate. The firefly luciferase activity was normalized to the Renilla luciferase activity of the same sample, and the mean was calculated from the parallels. From the mean values of each independent run, the overall mean and its standard deviation (S.D.) were calculated.

Stat5a = biological target: T2, Stat5a (Homo sapiens, UniProt P42229); experiment: Stat5a transcriptional activity, beta-casein promoter luciferase reporter gene assay in PC-3 cells; assay type: cell-based; design: expressed in transfected cells; host or cells: PC-3 human prostate cancer cells; details: 1 hour pretreatment, then 10 nM hPrl 16 hours
T2 sequence (P42229 1-794): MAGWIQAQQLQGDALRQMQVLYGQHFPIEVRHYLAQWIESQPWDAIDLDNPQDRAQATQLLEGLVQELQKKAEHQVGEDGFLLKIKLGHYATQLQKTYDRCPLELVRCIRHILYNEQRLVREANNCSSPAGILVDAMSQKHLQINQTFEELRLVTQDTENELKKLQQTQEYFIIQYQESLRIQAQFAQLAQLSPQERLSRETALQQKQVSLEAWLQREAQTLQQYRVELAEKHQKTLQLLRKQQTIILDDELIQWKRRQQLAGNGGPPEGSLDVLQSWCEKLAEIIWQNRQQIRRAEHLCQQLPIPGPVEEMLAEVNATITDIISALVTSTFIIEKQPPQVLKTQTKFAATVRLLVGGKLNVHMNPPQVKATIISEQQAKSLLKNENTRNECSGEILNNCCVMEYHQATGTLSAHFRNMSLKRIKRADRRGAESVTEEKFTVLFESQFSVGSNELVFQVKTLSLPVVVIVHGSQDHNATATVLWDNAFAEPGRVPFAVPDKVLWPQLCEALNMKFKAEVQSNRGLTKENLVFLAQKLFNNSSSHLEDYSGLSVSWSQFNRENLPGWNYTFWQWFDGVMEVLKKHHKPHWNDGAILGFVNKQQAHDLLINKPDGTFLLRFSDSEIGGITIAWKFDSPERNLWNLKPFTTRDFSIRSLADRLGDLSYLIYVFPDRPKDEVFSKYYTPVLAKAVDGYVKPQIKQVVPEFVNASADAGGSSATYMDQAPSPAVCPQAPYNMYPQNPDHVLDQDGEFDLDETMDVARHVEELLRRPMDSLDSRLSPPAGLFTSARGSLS
Method: Cells of the human prostate cell line PC-3 were plated into 96-well plate at the density of 2×10^5 per well. After 24 hours of plating, cells were transiently co-transfected using FuGENE6 (Roche) with 0.25 μg of each of pStat5a, pPrlR (prolactin receptor) plasmids, 0.5 μg of pBeta-casein-luc and 0.025 μg of pRL-TK (Renilla luciferase) plasmids as an internal control. After another 24 hours of transfection, the cells were starved in serum-free medium for 8 hours, pretreated with (2R,3R,4S,5R)-2-(6-(3,4-dihydroisoquinolin-2(1H)-yl)-9H-purin-9-yl)-5-(hydroxymethyl)tetrahydrofuran-3,4-diol (Compound 1) or (2R,3S,4R,5R)-2-(hydroxymethyl)-5-(6-(2-phenylhydrazinyl)-9H-purin-9-yl)tetrahydrofuran-3,4-diol (Compound 2), for 1 hour, and then stimulated with 10 nM human prolactin (hPrl) in the serum-free medium for additional 16 hours. The lysates were assayed for firefly and Renilla luciferase activities using the Dual-Luciferase reporter assay system (Promega). The firefly luciferase activity was normalized to the Renilla luciferase activity of the same sample, and the mean was calculated from the parallels. From the mean values of each independent run, the overall mean and its standard deviation (S.D.) were calculated.
(§1) Cells of the human prostate cell line PC-3 were plated into 96-well plate at the density of 2×10^5 per well. […] The firefly luciferase activity was normalized to the Renilla luciferase activity of the same sample, and the mean was calculated from the parallels. From the mean values of each independent run, the overall mean and its standard deviation (S.D.) were calculated.
as §1

Structure (SMILES) | effect on transcriptional activity of Stat5b (Stat5b) | effect on transcriptional activity of Stat5a (Stat5a)
OC[C@H]1O[C@@H](n2cnc3c(NCc4ccccc4)ncnc32)[C@H](O)[C@@H]1O [Compound N6BA, N^6-benzyladenosine] | inhibited Stat5 transcriptional activity in a concentration-dependent manner | inhibits transcriptional activity of Stat5
OC[C@H]1O[C@@H](n2cnc3c(NNc4ccccc4)ncnc32)[C@H](O)[C@@H]1O [Compound 2, (2R,3S,4R,5R)-2-(hydroxymethyl)-5-(6-(2-phenylhydrazinyl)-9H-purin-9-yl)tetrahydrofuran-3,4-diol] | inhibited Stat5a and Stat5b transcriptional activity in a concentration-dependent manner | effectively block the transcriptional activity of Stat5a
OC[C@H]1O[C@@H](n2cnc3c(N4CCc5ccccc5C4)ncnc32)[C@H](O)[C@@H]1O [Compound 1, (2R,3R,4S,5R)-2-(6-(3,4-Dihydroisoquinolin-2(1H)-yl)-9H-purin-9-yl)-5-(hydroxymethyl)tetrahydrofuran-3,4-diol] | inhibited Stat5a and Stat5b transcriptional activity in a concentration-dependent manner | effectively block the transcriptional activity of Stat5a
